Test results published in US12661362B2, “Methods for the prevention and treatment of hearing loss” (Ting Therapeutics LLC, priority 2020, dated 2026).

Columns and labels:
[1] = following 2,000 mg oral use; cited from earlier work
HEI-OC1 cells = experiment: Caspase-Glo 3/7 assay in HEI-OC1 cells treated with Cisplatin; format: cell-based, mouse
Protocol: Now referring to FIG. 3A, and FIGS. 3D-3E, compounds protect from cisplatin toxicity in the mouse inner ear cell line. House Ear Institute-Organ of Corti 1 (HEI-OC1) cells (House Research Institute) were maintained in high-glucose Dulbecco's modified Eagle medium supplemented with 10% fetal bovine serum (Life Technologies, USA) at 33° C. and 10% CO2 as previously described (Kalinec et al., 2003). Cells were seeded at 8,000 cells/well in 96 well plates and left to attach overnight. Now referring to FIG. 3A, For the drug screening, HEI-OC1 cells were pretreated with 30 drug candidates at concentrations ranging from 2 nM to 40 μM one hour before receiving cisplatin. The cisplatin dose (50 μM) was based on our previously published dose response curve. The cells were co-incubated with cisplatin and drug candidates for an additional 19 hours prior to Caspase-Glo 3/7 assay (Promega, Madison, WI) as previously shown. Additionally, […] kenpaullone-treated cells were used as positive controls to validate our results. The DMSO concentration in drug preparation was adjusted to 0.1% v/v and it was verified that 0.5% DMSO had no effect on the cell death kinetics (Hall et al., 2014). Results of the assay were run in triplicate and normalized to cisplatin-only and media-only controls. The percent caspase activity was used to determine the relative protective effect of each compound. The luminescence detection representing caspase activity in each well was obtained using a Cytation Hybrid Multi-Mode Reader (Biotek, Winooski, VT, USA). The percent protection of the cells was calculated using caspase 3/7 readouts and the following formula: […]
In the following examples, Niclosamide, 5-chloro-N-(2-chloro-4-nitrophenyl)-2-hydroxy-benzamide, with a ≥95% purity was used for all experiments (Cayman Chemical, USA).

zebrafish neuromast HCs = experiment: NMDA excitotoxicity in zebrafish neuromast hair cells; format: in vivo; details: 2 nM and 18 nM; 300 μM NMDA
Protocol: (§1) Now referring to FIGS. […], representative samples of the mouse HCs at 32 kHz, the most protected frequency region shown by ABR measurement (FIG. 4E). […] Niclosamide protects NMDA-induced hair cell loss in zebrafish. Application of the N-methyl-d-aspartate (NMDA) to zebrafish neuromast HCs has also been used to mimic glutamate excitotoxicity associated with noise exposure (Katie S. Kindt and Lavinia Sheets, 2018). The results of the HC count following exposure of zebrafish to 300 μM NMDA led to hair-cell loss.
Now referring to FIGS. 5A-5F Niclosamide had protective effects on NIHL in Zebrafish and FVB/NJ mice in vivo. CIHL and NIHL share mechanistic commonalities. Now referring to FIG. 5A, to test whether Niclosamide protects HCs from excitotoxic trauma, a zebrafish model that mimics noise damage was employed, Zebrafish were exposed to the ionotropic glutamate receptor agonist, N-methyl-D-aspartate (NMDA), previously shown to cause progressive HC loss in zebrafish lateral-line organs (Sheets, 2017) with or without niclosamide. 5-dpf larvae were preincubated with 300 μM NMDA for 50 min followed by 2 hours incubation with niclosamide at 2 nM and 18.3 nM.

FVB/NJ mice [2] = experiment: Safety monitoring of drugs IP in FVB/NJ mice, with or without Cisplatin; format: in vivo, mouse
Protocol: To investigate the drugs' effects on mammalian auditory function in vivo, we first treated 5-7 weeks old FVB/NJ mice with […] drug candidates: Niclosamide (10 mg/kg/day), Ingenol (0.3 mg/kg/day), Elesclomol (5 mg/kg/day), for 4 consecutive days (IP) to monitor safety of the drugs. All tested doses were determined based on previous published data showing maximum non-toxic dose through intraperitoneal (IP) injection.
Baseline auditory brainstem response (ABR) were measured on 16 mice divided in 3 groups receiving Ingenol, Elesclomol, and Niclosamide. The mice received the drug doses described above, then on day 2 of drug injection mice also received 30 mg/kg Cisplatin (IP; 4 mice per group).

FVB/NJ mice [3] = experiment: Cisplatin-induced hearing loss in FVB/NJ mice (ABR, DPOAE, wave-1, hair cell count); format: in vivo, mouse
Source text: Now referring to FIGS. 4A-4F Niclosamide attenuates Cisplatin-induced hearing loss in FVB/NJ mice. Mice: Procedures used with mice were approved by the Institutional Animal Care and Use Committee (IACUC) at the Creighton University. For functional assessments including Cisplatin and noise exposure experiments 5 to 7-week-old FVB/NJ mice obtained from Jackson Laboratory (Bar Harbor, ME, USA) were used, with a mix of males and females across experiments. For the Cisplatin and noise studies, FVB/NJ mice were treated with 10 mg/kg Niclosamide, through intraperitoneal (IP) injection. Niclosamide, was dissolved in 1% DMSO in normal saline (0.9% NaCl solution) and vortexed multiple times before injections. Treatment started 24 hours before the Cisplatin or noise-exposure and continued once daily for 3 more days. Cisplatin was injected IP at 30 mg/kg divided into 2 doses per day. Animals were given 1 mL warm sterile normal saline subcutaneously twice a day before and for 7 days after Cisplatin treatment to prevent dehydration.
Now referring to FIG. 4A, ABR tests were performed 2-3 days before Cisplatin exposure, and 5 days post-Cisplatin exposure. The experimental groups included: Cisplatin and 1% DMSO, Cisplatin and Niclosamide, Niclosamide, only, and age-matched controls receiving normal saline. For the noise experiment, auditory tests were performed 2-3 days prior to noise exposure (paradigm described below), at post-exposure day-1 to monitor temporary threshold shift (TTS) and at post-exposure day-14 to monitor permanent threshold shift (PTS). Experimental groups included: noise-exposure and normal saline, noise-exposure and Niclosamide, Niclosamide-only, and age-matched controls. Following the final auditory function measurements, mice were euthanized, and cochleae were collected for morphological assessment. Based on the results of FVB/NJ ABR/DPOAE threshold variances and power analysis, ten FVB/NJ mice per group (5 of each sex) were used in this study.
Now referring to FIG. 4B measurement of the distortion products otoacoustic emission (DPOAE) thresholds at frequencies ranging from 8 to 40 kHz in cisplatin, niclosamide, control, and cisplatin-niclosamide treated-mice.
Now referring to FIG. 4C-4D, mean wave-1 amplitudes at 8, 16, 32, and 40 kHz was measured in the control and Niclosamide-treated mice before Cisplatin injection and at Day 5 post-Cisplatin injection. The ABR wave-1 amplitude represents the summed activity of the cochlear nerve. Amplitudes from the 85 dB SPL stimuli were compared between groups in the baseline ABR measurements using a two-factor ANOVA (group x frequency), and no group differences were detected (P>0.05).
as §1

[4] = 20 mg/kg/day IP, 4 consecutive days

Structure (SMILES): O=C(Nc1ccc([N+](=O)[O-])cc1Cl)c1cc(Cl)ccc1O [Niclosamide, 5-chloro-N-(2-chloro-4-nitrophenyl)-2-hydroxy-benzamide]
- Cmax [1]: 18 µM
- share of the dosage range tested with some level of protection (HEI-OC1 cells; 2 nM to 40 μM tested): over 80%
- protection against Cisplatin damage compared to kenpaullone (HEI-OC1 cells; HEI-OC1 cells): comparable levels of protection to kenpaullone
- protection compared to sodium thiosulfate, ebselen, dexamethasone, N-acetylcysteine (HEI-OC1 cells; HEI-OC1 cells): better protection than four other benchmark compounds
- caspase activity (HEI-OC1 cells; at a dosage of ~4.4 μM, Cisplatin 50 μM): 0%
- caspase-3/7 activity relative to control cells (HEI-OC1 cells; dose of 4.4 μM, Cisplatin 50 μM): reduce caspase activity to comparable levels as control cells
- HC survival after NMDA (zebrafish neuromast HCs): significantly increased HC survival
- clinical signs (FVB/NJ mice [2]; [4]): sign of pain and distress including mouse hunch
- weight loss (FVB/NJ mice [2]; [4]): 20-30%
- weight loss, pain and distress (FVB/NJ mice [2]; Niclosamide 10, Ingenol 0.3, Elesclomol 5 mg/kg/day IP, 4 consecutive days): None of the mice showed reduced weight loss or signs of pain and distress
- general toxicity versus Cisplatin alone (FVB/NJ mice [2]; combination with Cisplatin 30 mg/kg single injection): no general toxicity
- weight loss (FVB/NJ mice [2]; drug IP daily plus 30 mg/kg Cisplatin IP on day 2): less than 10%
- weight loss or abnormal behavior (FVB/NJ mice [2]; maximum IP doses approved by IACUC): no weight loss or abnormal behavior
- survival (FVB/NJ mice [2]; plus 30 mg/kg Cisplatin, through day 5 post-Cisplatin injection): all survived
- ABR threshold shifts versus Cisplatin-only mice (FVB/NJ mice [3]; 8, 12 and 32 kHz, 10 mg/kg IP, Cisplatin 30 mg/kg): significantly reduced ABR threshold shifts
- DPOAE threshold shifts versus Cisplatin-only mice (FVB/NJ mice [3]; 16 and 32 kHz, 10 mg/kg IP, Day 5 post-Cisplatin): significantly reduced DPOAE threshold shifts
- HC survival versus Cisplatin group (FVB/NJ mice [3]; 30 kHz region): more HC survival
- outer hair cell quantification, protection against Cisplatin-induced hair cell loss (FVB/NJ mice [3]; 32 kHz region, cotreatment): full protection
- ABR wave-1 amplitudes versus Cisplatin only group (FVB/NJ mice [3]; all tested frequencies at 85 dB SPL, Day 5 post-Cisplatin): higher amplitudes
